Laboratory results published in ChEMBL document CHEMBL1201862, “PubChem BioAssay data set” (2004).
Activity calls are given as the source filed them.

Tests used:
[1] = biological target: T1, Replicative DNA helicase DnaB (Mycobacterium tuberculosis, UniProt P9WMR3); experiment: DnaB intein splicing inhibitors, dose response, biochemical, cell-free fluorescence (AID 449749); format: functional
T1 sequence (P9WMR3 whole entry): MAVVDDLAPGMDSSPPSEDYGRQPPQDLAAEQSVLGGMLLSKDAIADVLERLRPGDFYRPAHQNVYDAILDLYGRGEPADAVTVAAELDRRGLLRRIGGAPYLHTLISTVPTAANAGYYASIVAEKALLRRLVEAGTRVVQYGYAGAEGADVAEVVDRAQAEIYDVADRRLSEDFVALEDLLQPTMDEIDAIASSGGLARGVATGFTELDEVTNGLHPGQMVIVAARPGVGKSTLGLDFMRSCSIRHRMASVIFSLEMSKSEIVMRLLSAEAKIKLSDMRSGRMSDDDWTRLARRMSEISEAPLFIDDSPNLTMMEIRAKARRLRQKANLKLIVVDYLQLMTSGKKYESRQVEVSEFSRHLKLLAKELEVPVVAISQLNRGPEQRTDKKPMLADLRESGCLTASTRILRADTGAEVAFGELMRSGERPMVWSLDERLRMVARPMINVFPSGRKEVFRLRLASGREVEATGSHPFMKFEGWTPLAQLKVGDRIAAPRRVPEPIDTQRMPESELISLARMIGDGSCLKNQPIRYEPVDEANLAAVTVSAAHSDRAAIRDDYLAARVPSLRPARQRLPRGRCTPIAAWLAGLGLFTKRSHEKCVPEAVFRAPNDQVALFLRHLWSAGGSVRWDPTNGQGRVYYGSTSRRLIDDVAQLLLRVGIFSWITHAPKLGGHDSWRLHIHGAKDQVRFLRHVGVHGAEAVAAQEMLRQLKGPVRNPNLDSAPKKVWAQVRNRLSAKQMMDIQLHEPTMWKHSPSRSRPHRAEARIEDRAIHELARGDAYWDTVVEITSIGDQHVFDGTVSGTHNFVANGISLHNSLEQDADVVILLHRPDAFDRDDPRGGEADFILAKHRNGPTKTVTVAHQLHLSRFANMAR

[2] = biological target: T2, Type-1 angiotensin II receptor (Homo sapiens, UniProt P30556); experiment: antagonism of angiotensin II type 1 receptor – cell-based, uHTS hits, selectivity assay for APJ receptor antagonist project, dose response (AID 463214); format: functional;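 note: antagonist potency against angiotensin II stimulated AT1 response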
T2 sequence (P30556 whole entry): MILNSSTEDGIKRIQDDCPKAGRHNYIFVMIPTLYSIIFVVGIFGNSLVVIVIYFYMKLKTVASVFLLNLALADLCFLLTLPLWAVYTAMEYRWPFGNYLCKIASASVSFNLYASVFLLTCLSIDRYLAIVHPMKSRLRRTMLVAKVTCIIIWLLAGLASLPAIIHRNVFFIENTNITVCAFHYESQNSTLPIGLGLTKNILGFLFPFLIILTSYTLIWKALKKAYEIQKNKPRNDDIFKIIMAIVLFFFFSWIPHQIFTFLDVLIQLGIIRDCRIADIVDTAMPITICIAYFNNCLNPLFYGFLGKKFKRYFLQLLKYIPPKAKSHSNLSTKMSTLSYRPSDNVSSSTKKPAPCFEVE

Streptococcus = experiment: GAS UMAA2166 growth inhibition – luminescence, BacTiterGlo, counter-screen for streptokinase expression inhibitor project, dose response (AID 1915); format: functional, organism-based;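 note: potency for reduction of bacterial viability or growth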
Protein RecA = biological target: T3, Protein RecA (Mycobacterium tuberculosis, UniProt P9WHJ3); experiment: Fluorescence Cell-Free Homogeneous Dose Retest to Identify Inhibitors of RecA-Intein Splicing Activity. [Related pubchem assays (depositor defined):AID2097, AID2223, AID489010, AID492950]; format: functional
T3 sequence (P9WHJ3 whole entry): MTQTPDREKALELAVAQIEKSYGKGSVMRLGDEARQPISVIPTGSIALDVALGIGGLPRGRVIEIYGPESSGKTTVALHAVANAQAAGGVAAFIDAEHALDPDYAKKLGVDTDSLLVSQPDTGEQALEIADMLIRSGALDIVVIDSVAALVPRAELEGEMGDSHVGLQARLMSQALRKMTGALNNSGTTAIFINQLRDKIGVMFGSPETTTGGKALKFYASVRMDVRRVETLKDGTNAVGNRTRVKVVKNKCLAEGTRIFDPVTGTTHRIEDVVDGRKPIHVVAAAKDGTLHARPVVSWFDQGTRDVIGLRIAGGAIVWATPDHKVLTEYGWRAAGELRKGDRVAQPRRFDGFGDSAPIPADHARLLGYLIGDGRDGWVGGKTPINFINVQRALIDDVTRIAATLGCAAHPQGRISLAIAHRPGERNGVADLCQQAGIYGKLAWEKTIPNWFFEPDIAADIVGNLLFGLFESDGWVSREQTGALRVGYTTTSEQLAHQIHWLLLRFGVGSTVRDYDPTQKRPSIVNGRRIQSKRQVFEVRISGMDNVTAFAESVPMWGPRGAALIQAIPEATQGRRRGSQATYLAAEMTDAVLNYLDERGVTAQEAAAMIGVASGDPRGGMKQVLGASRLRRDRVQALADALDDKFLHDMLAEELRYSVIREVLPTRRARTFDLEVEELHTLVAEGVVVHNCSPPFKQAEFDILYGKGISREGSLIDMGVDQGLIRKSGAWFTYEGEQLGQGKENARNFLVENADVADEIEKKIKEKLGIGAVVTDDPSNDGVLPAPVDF

[3] = DRD fibroblast viability loss – cell-based, non-viral oncogenic, luminescence, dose response (AID 1934); format: functional; details: Homo sapiens
Nonstructural protein 1 = Nonstructural protein 1 (Influenza A virus, UniProt Q194T2); format: functional, Influenza A virus (A/California/07/2009(H1N1))
[4] = NIH3T3 cell viability loss – ATP luminescence, mouse fibroblasts, counter-screen, dose response (AID 2010); format: functional, cell-based;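 note: cells exposed to compound for about 90 hours before reading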
[5] = Trypanosoma cruzi growth suppression in host cells – NIH3T3 host cells, beta-gal luminescence, confirmation (AID 2044); format: functional, cell-based;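 note: intracellular parasites grown in NIH/3T3 mouse fibroblasts as host cells; luminescent beta-galactosidase reporter signal from transgenic T. cruzi replicating inside host cells; inhibitors lower the luminescence signal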
[6] = test system: Streptococcus sp. 'group A'; experiment: Streptococcus pyogenes SK(-)GAS viability under kanamycin – luminescence, BacTiterGlo, confirmation, counter-screen for streptokinase expression inhibitor project, dose response (AID 1900); format: functional, organism-based
BJ [7] = experiment: BJ-TERT fibroblast viability loss – cell-based, RAS-independent, luminescence, dose response (AID 1933); format: functional; details: Homo sapiens
INS1 = experiment: INS-1E survival protection against cytokine death – cell-based, luminescence, retest, dose response (AID 449756); format: functional; details: Rattus norvegicus, INS1;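 note: cell death triggered by IL-1 beta plus TNF-alpha plus IFN-gamma mixture; protective hits raise ATP signal compared with cytokine alone wells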
BJ [8] = experiment: BJ-TERT-LT-ST fibroblast viability loss – cell-based, RAS-independent, luminescence, dose response (AID 1935); format: functional; details: Homo sapiens;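 note: BJ fibroblasts immortalized with TERT plus LT and ST oncogenes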
Beta-galactosidase = Beta-galactosidase (Escherichia coli, UniProt Q8VNN2); experiment: PubChem AID 485352; format: functional
[9] = IC50 of Artemis nuclease activity blockers – biochemical, fluorescence intensity, dose response (AID 720701); format: functional;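 note: Artemis endonuclease enzyme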
BJ [10] = experiment: cells; format: functional, cell-based; details: Homo sapiens
[11] = viability loss in THP-1 monocytes – THP-1 cells, cytotoxicity control for Vif-APOBEC3G degradation inhibitor project, dose response (AID 1117359); format: functional; details: THP-1
[12] = biological target: T4, Small ubiquitin-related modifier 1 (Homo sapiens, UniProt P63165); experiment: SUMO1 protein interaction blockers, potency – biochemical, fluorescence polarization, uHTS hits, dose response (AID 624382); format: functional; details: read-out: IC50_Mean
[13] = biological target: T5, Rac GTPase-activating protein 1 (Homo sapiens, UniProt Q9H0H5); experiment: blockers of MgcRacGAP-driven Rac1 GTP hydrolysis – biochemical, ADP Hunter fluorescence, primary and confirmatory, confirmation (AID 624330); format: functional
T5 sequence (Q9H0H5 whole entry): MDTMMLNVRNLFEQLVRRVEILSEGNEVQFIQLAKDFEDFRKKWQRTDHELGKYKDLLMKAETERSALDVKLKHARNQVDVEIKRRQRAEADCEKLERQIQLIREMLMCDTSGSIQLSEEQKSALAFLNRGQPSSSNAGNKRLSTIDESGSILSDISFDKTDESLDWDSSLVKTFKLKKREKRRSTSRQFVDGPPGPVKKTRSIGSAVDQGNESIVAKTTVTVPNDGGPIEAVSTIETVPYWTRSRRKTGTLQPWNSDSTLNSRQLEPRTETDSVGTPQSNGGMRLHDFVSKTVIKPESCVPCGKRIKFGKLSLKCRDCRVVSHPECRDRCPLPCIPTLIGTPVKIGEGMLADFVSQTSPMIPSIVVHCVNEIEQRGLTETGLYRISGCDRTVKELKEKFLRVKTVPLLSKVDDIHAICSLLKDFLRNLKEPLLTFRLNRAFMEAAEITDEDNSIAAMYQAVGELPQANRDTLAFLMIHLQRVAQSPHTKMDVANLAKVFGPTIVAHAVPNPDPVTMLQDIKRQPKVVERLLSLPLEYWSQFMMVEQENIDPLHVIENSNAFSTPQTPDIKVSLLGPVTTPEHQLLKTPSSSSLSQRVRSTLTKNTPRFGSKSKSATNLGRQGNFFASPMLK

[14] = biological target: Glutathione-S-transferase (Schistosoma japonicum, UniProt Q26513); experiment: GST-antibody interaction or FRET quenching – biochemical, TR-FRET, artefact control for Vif-APOBEC3G degradation inhibitor project, dose response (AID 1117362); format: functional
[15] = biological target: T4, Small ubiquitin-related modifier 1; experiment: SUMO1 protein-protein binding blockers, potency – biochemical, FRET, dose response (AID 624383); format: functional; details: read-out: IC50_Mean
[16] = biological target: T6, DNA repair protein RAD52 homolog (Homo sapiens, UniProt P43351); format: functional, biochemical
T6 sequence (P43351 whole entry): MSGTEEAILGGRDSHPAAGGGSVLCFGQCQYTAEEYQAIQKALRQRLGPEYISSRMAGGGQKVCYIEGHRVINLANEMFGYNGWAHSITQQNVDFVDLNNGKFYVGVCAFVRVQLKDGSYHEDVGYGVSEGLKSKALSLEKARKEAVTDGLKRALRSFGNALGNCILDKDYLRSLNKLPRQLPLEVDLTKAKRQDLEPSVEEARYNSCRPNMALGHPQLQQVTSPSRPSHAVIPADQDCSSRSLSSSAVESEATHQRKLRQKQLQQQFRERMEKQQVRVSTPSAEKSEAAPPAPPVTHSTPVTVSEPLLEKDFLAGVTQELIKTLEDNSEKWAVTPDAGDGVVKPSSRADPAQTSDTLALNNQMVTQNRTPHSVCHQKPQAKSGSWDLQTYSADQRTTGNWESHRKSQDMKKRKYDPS

[17] = biological target: Glucose-6-phosphate 1-dehydrogenase (Homo sapiens, UniProt P11413); experiment: inhibition of Homo sapiens G6PD, dose series – biochemical, fluorescence, selectivity assay for P. falciparum G6PD inhibitor project, dose response (AID 504792); format: functional
[18] = viability loss in HeLa cells – cytotoxicity control for MgcRacGAP inhibitor project, dose response (AID 624300); format: functional
[19] = toxicity to human hepatoma HepG2 cells – cell-based, cherry-picked samples, cytotoxicity control, dose response (AID 1159577); format: functional
[20] = P. falciparum Dd2 growth inhibitors, dose response, SYBR Green, cherry-picked samples (AID 1159567); format: functional, cell-based
[21] = biological target: G-protein coupled receptor 183 (Homo sapiens, UniProt P32249); experiment: SAR confirmation of small molecule antagonists of the EBI2 receptor via a luminescent beta-arrestin assa.; format: functional
[22] = biological target: RNA-editing ligase 1, mitochondrial (Trypanosoma brucei brucei, UniProt P86926); experiment: inhibition of trypanosome RNA editing ligase – biochemical, fluorescence, Trypanosoma brucei, dose response (AID 1117295); format: functional
Chain of RNA-editing ligase 1, mitochondrial (P86926 whole entry): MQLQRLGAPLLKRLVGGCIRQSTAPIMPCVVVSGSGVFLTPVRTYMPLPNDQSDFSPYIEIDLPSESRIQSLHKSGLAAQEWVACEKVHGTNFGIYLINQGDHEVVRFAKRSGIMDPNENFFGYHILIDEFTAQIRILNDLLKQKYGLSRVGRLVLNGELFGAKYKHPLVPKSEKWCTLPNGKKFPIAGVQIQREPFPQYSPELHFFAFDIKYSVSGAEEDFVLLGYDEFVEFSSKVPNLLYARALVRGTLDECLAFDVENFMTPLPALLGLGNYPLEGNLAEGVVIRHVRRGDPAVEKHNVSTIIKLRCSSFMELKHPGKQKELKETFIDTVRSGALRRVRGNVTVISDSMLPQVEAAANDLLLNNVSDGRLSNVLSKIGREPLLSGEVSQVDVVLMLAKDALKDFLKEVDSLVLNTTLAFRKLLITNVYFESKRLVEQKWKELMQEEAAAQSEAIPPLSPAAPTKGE

Chain of G-protein coupled receptor 183 (P32249 whole entry): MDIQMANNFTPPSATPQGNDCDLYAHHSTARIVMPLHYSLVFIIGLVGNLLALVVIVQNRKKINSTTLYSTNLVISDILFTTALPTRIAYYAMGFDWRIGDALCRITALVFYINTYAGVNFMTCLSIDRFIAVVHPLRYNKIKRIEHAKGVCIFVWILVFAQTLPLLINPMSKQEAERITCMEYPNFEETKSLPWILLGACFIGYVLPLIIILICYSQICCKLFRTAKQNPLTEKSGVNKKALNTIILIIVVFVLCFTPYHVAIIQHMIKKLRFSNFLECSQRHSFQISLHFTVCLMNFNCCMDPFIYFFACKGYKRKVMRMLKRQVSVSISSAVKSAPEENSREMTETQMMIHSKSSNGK
T4 sequence (P63165 whole entry): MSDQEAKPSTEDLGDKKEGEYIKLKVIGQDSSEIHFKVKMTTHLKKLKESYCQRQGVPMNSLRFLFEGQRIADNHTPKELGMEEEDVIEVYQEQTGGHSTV
Chain of Beta-galactosidase (Q8VNN2 whole entry): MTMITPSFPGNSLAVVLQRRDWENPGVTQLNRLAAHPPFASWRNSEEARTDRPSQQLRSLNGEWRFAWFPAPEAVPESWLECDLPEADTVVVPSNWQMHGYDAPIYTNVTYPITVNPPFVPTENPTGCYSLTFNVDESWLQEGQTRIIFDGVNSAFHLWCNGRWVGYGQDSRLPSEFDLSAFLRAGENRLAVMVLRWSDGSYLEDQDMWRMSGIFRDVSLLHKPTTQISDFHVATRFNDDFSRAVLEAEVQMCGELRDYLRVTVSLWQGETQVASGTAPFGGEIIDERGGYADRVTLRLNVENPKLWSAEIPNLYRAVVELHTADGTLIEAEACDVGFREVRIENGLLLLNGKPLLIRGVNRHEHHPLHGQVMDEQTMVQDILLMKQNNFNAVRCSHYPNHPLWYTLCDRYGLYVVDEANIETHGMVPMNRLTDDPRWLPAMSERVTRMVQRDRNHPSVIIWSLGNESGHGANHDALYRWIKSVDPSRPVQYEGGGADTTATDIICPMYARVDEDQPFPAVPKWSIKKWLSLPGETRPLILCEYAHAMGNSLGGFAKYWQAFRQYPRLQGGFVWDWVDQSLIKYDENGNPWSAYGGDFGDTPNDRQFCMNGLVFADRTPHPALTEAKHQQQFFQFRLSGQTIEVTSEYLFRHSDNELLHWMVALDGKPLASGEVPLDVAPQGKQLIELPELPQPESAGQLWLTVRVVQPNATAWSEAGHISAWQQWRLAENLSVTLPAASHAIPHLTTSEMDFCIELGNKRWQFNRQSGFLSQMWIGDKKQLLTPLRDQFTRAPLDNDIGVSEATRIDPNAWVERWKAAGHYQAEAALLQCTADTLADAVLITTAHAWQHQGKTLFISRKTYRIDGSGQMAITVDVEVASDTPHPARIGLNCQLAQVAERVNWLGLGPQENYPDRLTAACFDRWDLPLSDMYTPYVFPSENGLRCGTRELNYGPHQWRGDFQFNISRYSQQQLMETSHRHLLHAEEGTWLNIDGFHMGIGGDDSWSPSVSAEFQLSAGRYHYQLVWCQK
Chain of Glucose-6-phosphate 1-dehydrogenase (P11413 whole entry): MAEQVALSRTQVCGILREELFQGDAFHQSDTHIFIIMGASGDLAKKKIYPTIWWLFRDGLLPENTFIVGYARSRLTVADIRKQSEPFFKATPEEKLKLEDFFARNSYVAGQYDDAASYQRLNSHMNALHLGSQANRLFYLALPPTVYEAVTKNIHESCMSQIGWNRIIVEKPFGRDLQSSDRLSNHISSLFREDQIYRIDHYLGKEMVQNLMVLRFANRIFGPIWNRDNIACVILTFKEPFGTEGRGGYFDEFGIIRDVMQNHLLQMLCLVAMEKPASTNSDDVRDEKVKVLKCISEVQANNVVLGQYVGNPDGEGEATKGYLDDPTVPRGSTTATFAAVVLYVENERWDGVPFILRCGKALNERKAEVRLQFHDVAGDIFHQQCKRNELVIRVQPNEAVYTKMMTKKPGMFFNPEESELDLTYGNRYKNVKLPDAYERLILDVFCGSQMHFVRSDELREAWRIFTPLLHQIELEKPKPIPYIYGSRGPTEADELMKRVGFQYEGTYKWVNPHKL
Chain of Nonstructural protein 1 (Q194T2 whole entry): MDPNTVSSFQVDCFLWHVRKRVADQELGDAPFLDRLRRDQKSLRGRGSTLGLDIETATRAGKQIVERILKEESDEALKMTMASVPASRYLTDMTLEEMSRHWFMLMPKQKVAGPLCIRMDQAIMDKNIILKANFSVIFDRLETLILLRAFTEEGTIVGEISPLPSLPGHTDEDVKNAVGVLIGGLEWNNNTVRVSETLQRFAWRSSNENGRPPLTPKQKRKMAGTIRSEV
Chain of Glutathione-S-transferase (Q26513 whole entry): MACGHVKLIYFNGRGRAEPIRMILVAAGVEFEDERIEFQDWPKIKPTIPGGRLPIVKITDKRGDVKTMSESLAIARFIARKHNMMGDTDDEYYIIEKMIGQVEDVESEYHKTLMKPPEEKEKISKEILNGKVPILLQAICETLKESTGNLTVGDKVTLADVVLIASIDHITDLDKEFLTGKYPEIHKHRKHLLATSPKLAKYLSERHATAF

c1ccc(-c2nc(N3CCCCCC3)c3ccccc3n2)nc1
AC50 [1]: 36.2 µM (active) | IC50 [2]: > 40 µM (not active) | EC50 (Streptococcus): 1.19 µM (active) | EC50 (Protein RecA): > 380 µM (inconclusive) | EC50 [3]: 21 µM (active) | IC50 (Nonstructural protein 1): 23 µM (active) | EC50 [4]: 2.24 µM (active) | EC50 [5]: 845 nM (active) | EC50 [6]: 947 nM (active) | EC50 (BJ [7]): 9.59 µM (active) | AC50 (INS1): 1.8 µM (active) | EC50 (BJ [8]): 50.7 µM (inconclusive) | EC50 (Beta-galactosidase): > 40 µM (inactive) | IC50 [9]: 4.71 µM (active) | EC50 (BJ [10]): 25.7 µM (active)

Cc1cc(C)c2c(=N)c3ccccc3n(CCCCCCCCn3c4ccccc4c(=N)c4c(C)cc(C)nc43)c2n1
CC50 [11]: 5.65 µM (active) | IC50 [12]: > 66.6 µM (inactive) | IC50 [13]: 26.3 µM (active) | IC50 [14]: 2.4 µM (active) | IC50 [15]: 4.83 µM (active) | AC50 [16]: < 364 nM (active) | IC50 [17]: 29 µM (inactive) | CC50 [18]: 20.4 µM (active)

CO[C@@H]1CN(C)C(=O)c2ccc(NC(=O)Nc3cccc(Cl)c3)cc2OC[C@@H](C)NC[C@H]1C
AC50 [19]: 30.3 µM (active) | AC50 [20]: 5.07 µM (active)

Cc1cc(C)cc(CN2CCN(C(=O)/C=C/c3ccc(Br)cc3)CC2)c1
IC50 [21]: 6.4 nM (active)

N#C[C@H]1[C@@H](c2ccc(C#CC3CCCC3)cc2)[C@@H](CO)N1S(=O)(=O)c1ccccc1
AC50 [19]: 24.8 µM (active) | AC50 [20]: 3.62 µM (active)

O=C(c1ccc(Br)cc1)N1CCN(C(=O)c2ccccc2Cl)CC1
IC50 [21]: > 1000 nM (inactive)

Cc1cc(O)c2c(c1)C(=O)[C@@]13C(=C(O)[C@H]4C(O)[C@@H]1[C@H]1C(O)[C@@H]3C(O)=C3C(=O)c5c(O)cc(C)cc5C(=O)[C@@]314)C2=O (stereo not given in full)
IC50 [22]: 4.1 µM (active)
